In patent US20230159510A1, “NOVEL PRMT5 INHIBITORS” (AMGEN INC., priority 2020, published 2023) one finds IC50 and Ki data, which are given here for 24 molecules.

One test relates to HCT116 MTAP null cells. Put plainly: HCT116 proliferation assay, MTAP null cells (CellTiter-Glo, 6 days). The class given is cell-based. Particulars: HCT116-MTAP null, 144 h, read-out: Protif_ HCT116-MTAP null IC50. The procedure, abridged: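 Compound titrations (top dose 1 or 10 µM, 1:3 dilution, 8 or 9 concentrations) and a DMSO control were applied to cells cultured overnight beforehand in RPMI 1640 with 10% FBS at 37° C, 5% CO2; viability was scored from luminescence.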

The target of the next test is PRMT5/MEP50 (Homo sapiens, UniProt O14744). Kind of test: MTase-Glo methyl transferase assay, Method B (FL-Histone H2A, 1 µM MTA, 1 h pre-incubation). Also noted: purchased Reaction Biology Corp RD-11-292. As to conditions: read-out: PRMT5 MTase Glo Ki (nM, Meth. B). The class given is biochemical. As for the experimental part:
Method B: The PRMT5 inhibitory activity of test compounds was determined using the MTase-Glo™ assay (Promega), which monitors the product (S-adenosyl homocysteine or SAH) of methyltransferase reactions. The PRMT5 MTase-Glo assay was conducted in a 384-well white ProxiPlate (PerkinElmer) in a total volume of 16 µL. The PRMT5 enzymatic reaction (in 8 µL) contained 4 nM PRMT5/MEP50 (Reaction Biology Corp, catalog no.: RD-11-292), 5 µM S-adenosyl methionine (SAM, Promega), 2.5 µM FL-Histone H2A (BPS Bioscience, catalog no.: 52021), 1 µM 5′-methylthioadenosine (MTA, Sigma) and ½ log serially diluted compounds in a reaction buffer of 50 mM Tris (pH 8.0), 50 mM NaCl, 0.01% Tween 20, 0.01% BSA, and 1 mM TCEP. Test compounds were pre-incubated with PRMT5/MEP50, SAM, and MTA for 1 hour before addition of FL-Histone H2A to initiate the PRMT5 reaction. The reaction was allowed to proceed for 20 hours at room temperature and was then terminated by addition of 1 µL of 9X MTase-Glo™ Reagent (Promega). After a 30-minute incubation at room temperature, 8 µL of MTase-Glo™ Detection Solution (Promega) was added and the plate was incubated at room temperature for an additional 30 minutes. The light signal corresponding to the amount of SAH produced by the PRMT5 reaction was subsequently measured using an Envision multimode reader (PerkinElmer). IC50 and KI values were obtained by analyzing dose-response curves using GraphPad Prism®.

Some results are limits rather than exact numbers.

PRMT5/MEP50, sequence (O14744 2-637 limits assumed): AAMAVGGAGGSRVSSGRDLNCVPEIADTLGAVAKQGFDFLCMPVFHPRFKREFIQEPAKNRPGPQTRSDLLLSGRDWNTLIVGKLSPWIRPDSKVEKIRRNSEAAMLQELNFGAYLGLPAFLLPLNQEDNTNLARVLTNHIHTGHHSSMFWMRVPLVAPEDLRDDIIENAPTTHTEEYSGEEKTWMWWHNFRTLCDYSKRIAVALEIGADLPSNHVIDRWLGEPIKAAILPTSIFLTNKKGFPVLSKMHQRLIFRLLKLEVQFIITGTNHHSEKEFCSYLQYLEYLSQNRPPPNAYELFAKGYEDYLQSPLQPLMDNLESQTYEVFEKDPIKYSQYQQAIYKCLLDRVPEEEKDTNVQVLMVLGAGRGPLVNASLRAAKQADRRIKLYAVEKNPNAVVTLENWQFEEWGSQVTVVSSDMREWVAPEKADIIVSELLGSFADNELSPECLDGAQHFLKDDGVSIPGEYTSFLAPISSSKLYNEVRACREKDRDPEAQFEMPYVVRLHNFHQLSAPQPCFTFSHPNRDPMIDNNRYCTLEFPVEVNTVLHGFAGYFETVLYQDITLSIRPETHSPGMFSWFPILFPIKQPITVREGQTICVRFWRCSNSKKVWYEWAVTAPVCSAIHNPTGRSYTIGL
PRMT5/MEP50, sequence (Q9BQA1 2-342 partner limits assumed): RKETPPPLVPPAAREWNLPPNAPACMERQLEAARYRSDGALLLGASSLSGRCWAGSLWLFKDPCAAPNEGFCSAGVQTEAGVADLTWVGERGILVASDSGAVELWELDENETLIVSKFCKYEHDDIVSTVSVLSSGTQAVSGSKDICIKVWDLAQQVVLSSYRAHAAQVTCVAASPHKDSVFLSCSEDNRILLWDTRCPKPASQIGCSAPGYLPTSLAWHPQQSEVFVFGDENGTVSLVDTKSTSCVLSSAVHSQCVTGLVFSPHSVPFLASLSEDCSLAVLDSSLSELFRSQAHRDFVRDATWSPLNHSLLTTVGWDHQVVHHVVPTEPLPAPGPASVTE

Consider `Cc1cc2cc(C(=O)N(Cc3ccc(C(F)(F)F)cn3)C(C)C(C)C)ccc2nc1N` (stereo not drawn) [Example 642, 2-amino-N-(1,2-dimethylpropyl)-3-methyl-N-[[5-(trifluoromethyl)-2-pyridyl]methyl] quinoline-6-carboxamide], for which the IC50 (usually the concentration needed to halve the response being measured) with HCT116 MTAP null cells worked out at 86 nM. Moreover, on PRMT5/MEP50, the Ki (in general, the dissociation constant of the complex between target and ligand, obtained from inhibition or displacement) was determined as 2.55 nM.
On to `Cc1cc2cc(C(=O)N(Cc3ccc(N4CCCC4=O)cc3)Cc3ccc(C(F)(F)F)cn3)ccc2nc1N` [Example 645, 2-amino-3-methyl-N-[[4-(2-oxopyrrolidin-1-yl)phenyl]methyl] -N-[[5-(trifluoromethyl)-2-pyridyl]methyl] quinoline-6-carboxamide], for which the IC50 in the test with HCT116 MTAP null cells is over 1000 nM. In addition, on PRMT5/MEP50, the Ki came to 5.93 nM.
In the same order, the values of `Cc1cc2cc(C(=O)N(Cc3ccc(N4CCCC4)cc3)Cc3ccc(C(F)(F)F)cn3)ccc2nc1N` [Example 646, 2-amino-3-methyl-N-[(4-pyrrolidin-1-ylphenyl)methyl]-N-[[5-(trifluoromethyl)-2-pyridyl]methyl] quinoline-6-carboxamide] are 850 nM and 6.83 nM.
With `Cc1cc2cc(C(=O)N(Cc3ccc(-c4cc[nH]n4)cc3)Cc3ccc(C(F)(F)F)cn3)ccc2nc1N` [Example 647, 2-amino-3-methyl-N-[[4-(IH-pyrazol-3-yl)phenyl]methyl]-N-[[5-(trifluoromethyl)-2-pyridyl]methyl] quinoline-6-carboxamide], the IC50 in the test with HCT116 MTAP null cells was determined as 320 nM. The Ki on PRMT5/MEP50 came out at 4.11 nM.
In the same order, the values of `Cc1cc2cc(C(=O)N(Cc3cccc(-n4ccnc4)c3)Cc3ccc(C(F)(F)F)cn3)ccc2nc1N` [Example 648, 2-amino-N-[(3-imidazol-1-ylphenyl)methyl]-3-methyl-N-[[5-(trifluoromethyl)-2-pyridyl]methyl] quinoline-6-carboxamide] are 180 nM and 1.68 nM.
In the same order, the values of `Cc1cc2cc(C(=O)N(Cc3cccc(-n4cncn4)c3)Cc3ccc(C(F)(F)F)cn3)ccc2nc1N` [Example 649, 2-amino-3-methyl-N-[[3-(1,2,4-triazol-1-yl)phenyl]methyl]-N-[[5-(trifluoromethyl)-2-pyridyl]methyl] quinoline-6-carboxamide] are 310 nM and 2.69 nM.
In the same order, the values of `Cc1cc2cc(C(=O)N(Cc3cccc(-c4ncc[nH]4)c3)Cc3ccc(C(F)(F)F)cn3)ccc2nc1N` [Example 650, 2-amino-N-[ [3-(1 H-imidazol-2-yl)phenyl]methyl] -3-methyl-N-[ [5-(trifluoromethyl)-2-pyridyl]methyl] quinoline-6-carboxamide] are 370 nM and 2.21 nM.
As for `Cc1cc2cc(C(=O)N(Cc3cccc(-n4ccnn4)c3)Cc3ccc(C(F)(F)F)cn3)ccc2nc1N` [Example 651, 2-amino-3-methyl-N-[[3-(triazol-1-yl)phenyl]methyl] -N-[ [5-(trifluoromethyl)-2-pyridyl]methyl] quinoline-6-carboxamide], the IC50 in the test with HCT116 MTAP null cells came out at 310 nM. The Ki at PRMT5/MEP50 is 3 to 9 nM.
In the same order, the values of `Cc1cc2cc(C(=O)N(Cc3ccc(C(F)(F)F)cn3)Cc3cccnc3-n3cncn3)ccc2nc1N` [Example 652, 2-amino-3-methyl-N-[[2-(1,2,4-triazol-1-yl)-3-pyridyl]methyl]-N-[[5-(trifluoromethyl)-2-pyridyl]methyl] quinoline-6-carboxamide] are 160 nM and 3 to 7 nM.
In the same order, the values of `Cc1cc2cc(C(=O)N(Cc3ccc(C(F)(F)F)cn3)Cc3ccccc3-n3ccnc3)ccc2nc1N` [Example 653, 2-amino-N-[(2-imidazol-1-ylphenyl)methyl]-3-methyl-N-[[5-(trifluoromethyl)-2-pyridyl]methyl] quinoline-6-carboxamide] are 280 nM and 2.79 nM.
On to `Cc1cc2cc(C(=O)N(Cc3ccc(C(F)(F)F)cn3)Cc3ccccc3-n3cccn3)ccc2nc1N` [Example 654, 2-amino-3-methyl-N-[(2-pyrazol-1-ylphenyl)methyl]-N-[[5-(trifluoromethyl)-2-pyridyl]methyl] quinoline-6-carboxamide], for which the IC50 with HCT116 MTAP null cells was 250 nM. Moreover, the Ki at PRMT5/MEP50 was 5.61 nM.
For the molecule `C#CCN(Cc1ccc(C(F)(F)F)cn1)C(=O)c1ccc2nc(N)c(C)cc2c1` [Example 655, 2-amino-3-methyl-N-prop-2-ynyl-N-[[5-(trifluoromethyl)-2-pyridyl]methyl] quinoline-6-carboxamide], the IC50 in the test with HCT116 MTAP null cells is 550 nM. Moreover, on PRMT5/MEP50, the Ki was in the range of 4 to 9 nM.
In the same order, the values of `C#CC(C)N(Cc1ccc(C(F)(F)F)cn1)C(=O)c1ccc2nc(N)c(C)cc2c1` (stereo not drawn) [Example 656, 2-amino-3-methyl-N-(1-methylprop-2-ynyl)-N-[[5-(trifluoromethyl)-2-pyridyl]methyl] quinoline-6-carboxamide] are 210 nM and 5.28 nM.
In the same order, the values of `CC#CCN(Cc1ccc(C(F)(F)F)cn1)C(=O)c1ccc2nc(N)c(C)cc2c1` [Example 657, 2-amino-N-but-2-ynyl-3-methyl-N-[[5-(trifluoromethyl)-2-pyridyl]methyl] quinoline-6-carboxamide] are 620 nM and 5.34 nM.
In the case of `C#CCCN(Cc1ccc(C(F)(F)F)cn1)C(=O)c1ccc2nc(N)c(C)cc2c1` [Example 659, 2-amino-N-but-3-ynyl-3-methyl-N-[[5-(trifluoromethyl)-2-pyridyl]methyl] quinoline-6-carboxamide], the IC50 in the test with HCT116 MTAP null cells amounted to 251 nM. Also, the Ki on PRMT5/MEP50 came out at 4.33 nM.
In the same order, the values of `Cc1cc2cc(C(=O)N(Cc3ccc(C(O)C(F)(F)F)cc3)Cc3ccc(C(F)(F)F)cn3)ccc2nc1N` (stereo not drawn) [Example 660, 2-amino-3-methyl-N-[ [4-(2,2,2-trifluoro-1-hydroxyethyl)phenyl]methyl]-N-[[5-(trifluoromethyl)-2-pyridyl]methyl] quinoline-6-carboxamide] are 800 nM and 7.14 nM.
In the same order, the values of `Cc1cc2cc(C(=O)N(Cc3ccc(O)cc3)Cc3ccc(C(F)(F)F)cn3)ccc2nc1N` [Example 661, 2-amino-N-[(4-hydroxyphenyl)methyl]-3-methyl-N-[[5-(trifluoromethyl)-2-pyridyl]methyl] quinoline-6-carboxamide] are 69 nM and 1.81 nM.
In the same order, the values of `Cc1cc2cc(C(=O)N(Cc3ccc(O)c(F)c3)Cc3ccc(C(F)(F)F)cn3)ccc2nc1N` [Example 662, 2-amino-N-[(3-fluoro-4-hydroxyphenyl)methyl] -3-methyl-N-[ [5-(trifluoromethyl)-2-pyridyl]methyl] quinoline-6-carboxamide] are 180 nM and 3.58 nM.
In the case of `Cc1cc2cc(C(=O)N(Cc3ccc(C(F)(F)F)cn3)C(C)c3cccc(O)c3)ccc2nc1N` (stereo not drawn) [Example 663, 2-amino-N-[1-(3-hydroxyphenyl)ethyl] -3-methyl-N-[[5-(trifluoromethyl)-2-pyridyl]methyl] quinoline-6-carboxamide], the half-inhibitory concentration (IC50) in the test with HCT116 MTAP null cells is 37 nM. Also, the inhibitory constant (Ki) on PRMT5/MEP50 was 1.7 nM.
In the same order, the values of `Cc1cc2cc(C(=O)N(Cc3ccc(C(F)(F)F)cn3)C(C)c3cc[nH]c(=O)c3)ccc2nc1N` (stereo not drawn) [Example 664, 2-amino-3-methyl-N-[1-(2-oxo-1H-pyridin-4-yl)ethyl]-N-[[5-(trifluoromethyl)-2-pyridyl]methyl] quinoline-6-carboxamide] are 670 nM and 9.1 nM.
In the same order, the values of `Cc1cc2cc(C(=O)N(Cc3cc(Br)ccn3)CC(C)C)ccc2nc1N` [Example 665, 2-amino-N-[(4-bromo-2-pyridyl)methyl]-N-isobutyl-3-methylquinoline-6-carboxamide] are 680 nM and 9.17 nM.
In the same order, the values of `COc1ccnc2c1CCCC2N(Cc1ccc(C(F)(F)F)cn1)C(=O)c1ccc2nc(N)c(C)cc2c1` (stereo not drawn) [Example 666, 2-amino-N-(4-methoxy-5,6,7,8-tetrahydroquinolin-8-yl)-3-methyl-N-[[5-(trifluoromethyl)-2-pyridyl]methyl] quinoline-6-carboxamide] are 41 nM and 3.93 nM.
In the case of `Cc1cc2cc(C(=O)N(Cc3ccc(C(F)(F)F)cn3)C3CCCc4ncccc43)ccc2nc1N` (stereo not drawn) [Example 667, 2-amino-3-methyl-N-(5,6,7,8-tetrahydroquinolin-5-yl)-N-[[5-(trifluoromethyl)-2-pyridyl]methyl] quinoline-6-carboxamide], the IC50 in the test with HCT116 MTAP null cells is 24 nM. Moreover, the Ki at PRMT5/MEP50 is 3.9 nM.
In the same order, the values of `Cc1cc2cc(C(=O)N(Cc3ccc(C(F)(F)F)cn3)C3CCC4CCCC4C3)ccc2nc1N` (stereo not drawn) [Example 669, N-(2,3,3a,4,5,6,7,7a-octahydro-1H-inden-5-yl)-2-amino-3-methyl-N-[[5-(trifluoromethyl)-2-pyridyl]methyl] quinoline-6-carboxamide] are 820 nM and 8.5 nM.
